Article doi:10.1101/2020.08.04.236091v1 (biorxiv, 2020)

Biological target: T1, MdomOR30a (co-expressed with MdomOrco) (Musca domestica, UniProt A0A1I8MP03)
T1 sequence (A0A1I8MP03 1-373): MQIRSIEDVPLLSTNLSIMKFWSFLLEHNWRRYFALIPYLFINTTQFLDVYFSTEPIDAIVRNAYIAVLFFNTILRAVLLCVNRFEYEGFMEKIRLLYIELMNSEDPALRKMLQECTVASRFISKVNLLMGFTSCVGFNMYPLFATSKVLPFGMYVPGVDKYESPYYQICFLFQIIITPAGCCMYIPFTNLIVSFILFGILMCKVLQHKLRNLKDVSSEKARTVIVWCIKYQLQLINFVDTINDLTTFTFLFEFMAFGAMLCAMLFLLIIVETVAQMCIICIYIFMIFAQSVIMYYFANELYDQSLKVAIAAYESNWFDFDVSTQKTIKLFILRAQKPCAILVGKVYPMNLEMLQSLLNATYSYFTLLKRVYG
T1 sequence (I0E1X6 1-478 partner): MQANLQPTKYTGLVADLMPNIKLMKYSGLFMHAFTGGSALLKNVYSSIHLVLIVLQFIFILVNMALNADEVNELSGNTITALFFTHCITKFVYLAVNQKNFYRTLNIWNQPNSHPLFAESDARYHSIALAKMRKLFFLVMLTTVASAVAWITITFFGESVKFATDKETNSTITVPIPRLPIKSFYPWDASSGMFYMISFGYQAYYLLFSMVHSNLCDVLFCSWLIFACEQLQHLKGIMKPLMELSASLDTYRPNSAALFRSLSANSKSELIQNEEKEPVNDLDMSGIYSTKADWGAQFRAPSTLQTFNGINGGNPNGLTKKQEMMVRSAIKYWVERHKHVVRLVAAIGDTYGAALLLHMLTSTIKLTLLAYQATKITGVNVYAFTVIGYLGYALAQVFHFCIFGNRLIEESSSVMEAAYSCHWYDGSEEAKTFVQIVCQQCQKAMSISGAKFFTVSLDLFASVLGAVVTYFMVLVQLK
Experiment: two-electrode voltage clamp, Xenopus oocytes, odorant-induced currents
Type: cell-based

Going from `c1ccc2[nH]ccc2c1` [indole] to `Cc1c[nH]c2ccccc12` [3-methylindole], the EC50 falls from 5.2 µM to 0.331 µM (16-fold).

In the case of `Cc1[nH]c2ccccc2c1C` [2,3-dimethylindole], the EC50 is reported as 7.04 µM.
